The source of these data is article PMC9772450, “Gel-forming antagonist provides a lasting effect on CGRP-induced vasodilation” (Frontiers in Pharmacology, 2022).

Where two headings read alike, the source gives them in different places. Non-standard residues stand in square brackets, D forms with d. Residues, ends and D or L forms follow the SMILES beside them. *: point of attachment. 2Nal = N[C@@H](Cc1ccc2ccccc2c1)C(=O)O; Met(O2) = CS(=O)(=O)CC[C@H](N)C(=O)O; Arg(Me) = CNC(=N)NCCC[C@H](N)C(=O)O; Palmitoyl = CCCCCCCCCCCCCCCC(=O)*

Series [1] in a line: Visual (tube-tapping) assay of gel-forming capability and solubility. In kind it is physicochemical. Details: key to Gel-forming ability: Y: can form a liquid gel; N: lacks the ability to efficiently form a liquid gel. The conditions noted are these: for Gel-forming ability: visual inspection of 11% peptide solutions, tube-tapping, 20 min after mixing. The procedure:
To evaluate the ability of peptides to form gels in situ, we initially determined this tendency qualitatively based on visual examinations of peptide solutions using a tube-tapping method. In addition, we quantitatively determined the viscosity of select peptide solutions using a viscometer (Rheosense Inc; http://www.rheosense.com/products/viscometers) ([Yan and Pochan, 2010]). In the visual assay, aliquots of peptides were dissolved in an aqueous solution (i.e., de-ionized water, saline, or 5% glucose solution). The peptide that dissolved instantly and stayed as a clear solution without obvious macroscopic change in viscosity at 20 min after mixing was considered soluble. If macroscopic particles of peptides remained in the solution at 20 min after mixing, the peptide was considered insoluble.

The next series deals with T1, CLR/RAMP1 receptor (Homo sapiens, UniProt O60894+Q16602).
T1 construct: host or cells: CHO-K1 (cAMP Hunter cell line)
The series is described as follows: HitHunter cAMP XS+ CALCRL-RAMP1 cAMP assay, antagonist mode. In kind it is cell-based. Conditions: for IC50: CHO-K1 CALCRL-RAMP1 cAMP Hunter cells, human β-CGRP at EC80 (0.37nM), 30 min pre-incubation, 10-point curve from 10 μM, 3-fold dilutions, duplicate samples, assayed side-by-side once, read-out: IC50 for antagonizing CGRP-induced CLR/RAMP1 signaling; for Maximum response: antagonist mode, β-CGRP at EC80, 10-point curve, duplicate; for Antagonistic activity toward CGRP-mediated CLR/RAMP1 signaling compared to ADE651: result in words. The method, then:
The assay of the antagonistic activity of analogs was conducted by the Eurofins Discoverx using the HitHunter cAMP XS + assay as described earlier ([Bradley and McLoughlin, 2009]; [Chang and Hsu, 2019]). The dose-dependent inhibitory effect of antagonists was studied in duplicate, at 10 different concentrations. Determination of the half-maximal inhibitory concentration (IC50) was performed using a 10-point dose-response curve. The starting concentration was 10 μM, and it was serially diluted 3-fold, in DMSO. […] Using the Hit Hunter® assay (CALCRL-RAMP1 cAMP assay in the antagonist mode; https://www.discoverx.com/products/cell-line/cho-k1-calcrl-ramp1-gs-cell-line-95-0164c2), the eight compounds in Table 1 were assayed side-by-side once, and the IC50 was derived based on the standard assay of duplicate samples of a ten-point curve. In this homogenous, non-imaging assay, the activation of CLR/RAMP1 signaling was evaluated using the Enzyme Fragment Complementation (EFC) technology with β-galactosidase (β-Gal) as the functional reporter. The enzyme was split into two complementary portions: an enzyme acceptor and an enzyme donor. The enzyme donor is fused to cAMP and it competes with cAMP generated by cells
For binding to a cAMP-specific antibody. Active β-Gal is formed by complementation of exogenous enzyme acceptor to any unbound enzyme donor-cAMP. The active enzyme then converted a chemiluminescent substrate to generate a signal. Briefly, cAMP Hunter cell lines with the select receptor were expanded from freezer stocks ([Bradley and McLoughlin, 2009]), and cells were seeded in a total volume of 20 μL into 384-well microplates and incubated at 37°C for the appropriate time. […] Intermediate dilution of samples was performed to generate 4X sample in the assay buffer. Before the assay, media was aspirated from cells and replaced with 10 μL 1:1 HBSS/Hepes:cAMP XS + Ab reagent, and 5 μL of 4X compound was added to the cells and incubated for 30 min. […] Vehicle concentration was 1%.
The chemiluminescent signal was read with a PerkinElmer chemiluminescent plate reader. The compound activity was analyzed using a CBIS data analysis suite (ChemInnovation, CA). The percentage inhibition was calculated using the following formula: % Inhibition = 100% x (1 - (mean RLU of test sample - mean RLU of vehicle control)/(mean RLU of EC80 control - mean RLU of vehicle control)). Data were normalized to the maximal and minimal response observed in the presence of EC80 agonist and vehicle.

Series [2] in a line: Passage of peptide molecules through Centricon filters. Type of series: physicochemical. Conditions: Centricon 30,000 MW cutoff, 15 min centrifugation; specific EIA; N = 3 per group; result in words. An excerpt: To evaluate whether gel-formation reduces the movement of peptide molecules in solution, we used the Centricon® filters (Millipore) to separate samples and the carriers based on their molecular mass. The sample is monomeric peptides, and the carrier is the self-assembled gel. One milligram aliquots of the peptides were first dissolved as 0.1% solution in 5% glucose, 0.1% solution in saline, 5% solution in 5% glucose, 10% solution in 5% glucose, and 20% solution in 5% glucose. Ten minutes later, the 5%, 10%, and 20% solutions were diluted to the 0.1% level. Aliquots of these solutions were sampled and dispensed into separate Centricon columns (30,000 MW cutoff), and the monomeric peptide and gel molecules were separated by centrifugation for 15 min (2000 x g). The level of peptide in the elutes was determined by specific EIAs (Phoenix Pharmaceuticals Inc.).

Series [3] has as its system CGRP-induced vasodilation. The experiment in a line: Dermal blood flow and vasodilation in rat hindlimbs, laser Doppler imaging. In kind it is in vivo, Sprague-Dawley rats. Conditions: rat hindlimb; saline at 0 h; CGRP 1 mg/100 µL s.c. at 4 h; N = 3. The method, then: Adult Sprague Dawley male rats (body weight 150–200 g) were randomly divided into treatment groups. Animals were individually housed during the experiment. After acclimation, rats were anesthetized and stabilized under 2.5% isoflurane, and were placed on a heating pad. Testing articles were prepared just before the experiment and individually administered subcutaneously into the hindlimbs. Human β-CGRP (LifeTein LLC, Hillsborough, NJ) was dissolved in a saline solution, and the antagonist solution was prepared in a 5% glucose solution. […] In this experiment, the antagonist gel solution was administered at 0 h as a liquid solution shortly after dissolution to prevent issues associated with the formation of semi-solid gel when the peptide is dissolved at high levels. […] The amount of blood flow was determined by laser Doppler imaging as described earlier ([Van der Schueren et al., 2007]; [Benschop et al., 2014]). The laser Doppler scan series of the hindlimbs began with two baseline scans and was followed by two scans each at select time points. Data are reported as percent change from the average baseline scans.

A further series deals with migraine. The conditions noted are these: cited from earlier work. An excerpt:
Migraine is a common complex neurovascular disorder that is manifested as episodic and predominantly unilateral throbbing headache with hypersensitivity to light, sound, and movement ([Erdener and Dalkara, 2014]; [Schuster and Rapoport, 2016]). According to the World Health Organization, 324 million people worldwide suffer from incapacitating migraine in 2008. In ∼ one-third of patients, migraine headaches are accompanied by an aura involving neurological symptoms such as transient visual, sensory, or motor disturbances ([Goadsby et al., 2002]). In the US, it was reported that 15% of Americans ...

For series [4] the following is noted: cited from earlier work.

T1 sequence (Q16602 23-461): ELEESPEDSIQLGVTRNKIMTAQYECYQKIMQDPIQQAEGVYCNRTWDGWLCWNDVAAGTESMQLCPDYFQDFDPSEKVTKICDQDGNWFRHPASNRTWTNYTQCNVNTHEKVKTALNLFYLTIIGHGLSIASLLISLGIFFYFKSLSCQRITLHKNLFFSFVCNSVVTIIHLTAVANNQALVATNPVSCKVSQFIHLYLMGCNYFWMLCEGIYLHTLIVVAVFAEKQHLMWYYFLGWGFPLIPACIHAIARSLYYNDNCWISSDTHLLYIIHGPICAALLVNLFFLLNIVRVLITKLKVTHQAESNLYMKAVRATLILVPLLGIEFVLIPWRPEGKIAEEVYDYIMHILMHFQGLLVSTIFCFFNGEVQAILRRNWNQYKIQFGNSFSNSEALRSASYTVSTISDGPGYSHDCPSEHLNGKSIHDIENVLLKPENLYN
T1 sequence (O60894 27-148): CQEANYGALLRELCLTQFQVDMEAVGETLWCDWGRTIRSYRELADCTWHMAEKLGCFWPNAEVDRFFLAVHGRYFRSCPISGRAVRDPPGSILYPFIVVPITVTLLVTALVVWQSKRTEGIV

In the case of `CCCCCCCCCCCCCCCC(=O)N[C@@H](CCCCN)C(=O)N[C@H](C(=O)N[C@@H](CCC(N)=O)C(=O)N[C@@H](CCCCN)C(=O)N[C@@H](Cc1ccc2ccccc2c1)C(=O)N[C@@H](CO)C(=O)N[C@@H](C)C(=O)N1CCC[C@H]1C(=O)N[C@H](C(=O)N[C@@H](CC(=O)O)C(=O)N1CCC[C@H]1C(=O)N[C@@H](CO)C(=O)N[C@@H](CO)C(=O)N1CCC[C@H]1C(=O)N[C@@H](Cc1c[nH]cn1)C(=O)N[C@@H](CO)C(=O)N[C@@H](Cc1ccc(O)cc1)C(N)=O)C(C)C)C(C)C` [ADE651H] (Palmitoyl-KVQK[2Nal]SAPVDPSSPHSY-NH2), the Gel-forming ability entry in series [1] is “Y”. Besides, at CLR/RAMP1 receptor, the IC50 is 15100 pM, the Maximum response is recorded as 100.1 % of positive control and the “Antagonistic activity toward CGRP-mediated CLR/RAMP1 signaling compared to ADE651” value is “significantly reduced antagonistic activity”.
The like results for `CCCCCCCCCCCCCCCC(=O)N[C@@H](CCCCN)C(=O)N[C@H](C(=O)N[C@@H](CCC(N)=O)C(=O)N[C@@H](CCCCN)C(=O)N[C@@H](CCS(C)(=O)=O)C(=O)N[C@@H](CO)C(=O)N[C@@H](C)C(=O)N1CCC[C@H]1C(=O)N[C@H](C(=O)N[C@@H](CC(=O)O)C(=O)N1CCC[C@H]1C(=O)N[C@@H](CO)C(=O)N[C@@H](CO)C(=O)N1CCC[C@H]1C(=O)N[C@@H](Cc1c[nH]cn1)C(=O)N[C@@H](CO)C(=O)N[C@@H](Cc1ccc(O)cc1)C(N)=O)C(C)C)C(C)C` [ADE651J] (Palmitoyl-KVQK[Met(O2)]SAPVDPSSPHSY-NH2) were, in that order, “Y”, 900 pM, 100.4 % of positive control and “retained the potent antagonistic activity”.
As to `CCCCCCCCCCCCCCCC(=O)N[C@@H](CCCCN)C(=O)N[C@H](C(=O)N[C@@H](CCC(N)=O)C(=O)N[C@@H](CCCNC(=N)NC)C(=O)N[C@@H](CC(C)C)C(=O)N[C@@H](CO)C(=O)N[C@@H](C)C(=O)N1CCC[C@H]1C(=O)N[C@H](C(=O)N[C@@H](CC(=O)O)C(=O)N1CCC[C@H]1C(=O)N[C@@H](CO)C(=O)N[C@@H](CO)C(=O)N1CCC[C@H]1C(=O)N[C@@H](Cc1c[nH]cn1)C(=O)N[C@@H](CO)C(=O)N[C@@H](Cc1ccc(O)cc1)C(N)=O)C(C)C)C(C)C` [ADE651M] (Palmitoyl-KVQ[Arg(Me)]LSAPVDPSSPHSY-NH2), the Gel-forming ability entry in series [1] was “Y”. Besides, the “Antagonistic activity toward CGRP-mediated CLR/RAMP1 signaling compared to ADE651” value at CLR/RAMP1 receptor is on record as “retained the potent antagonistic activity”.
In the case of `CSCC[C@H](NC(=O)CNC(=O)CNC(=O)[C@H](CO)NC(=O)[C@H](CCCNC(=N)N)NC(=O)[C@H](CO)NC(=O)[C@H](CC(C)C)NC(=O)[C@H](CC(C)C)NC(=O)CNC(=O)[C@H](C)NC(=O)[C@H](CC(C)C)NC(=O)[C@H](CCCNC(=N)N)NC(=O)[C@H](Cc1c[nH]cn1)NC(=O)[C@@H](NC(=O)[C@@H](NC(=O)[C@@H]1CSSC[C@H](NC(=O)[C@H](C)N)C(=O)N[C@@H](CC(N)=O)C(=O)N[C@@H]([C@@H](C)O)C(=O)N[C@@H](C)C(=O)N[C@@H]([C@@H](C)O)C(=O)N1)C(C)C)[C@@H](C)O)C(=O)N[C@H](C(=O)N[C@@H](CCCCN)C(=O)N[C@@H](CO)C(=O)N[C@@H](CC(N)=O)C(=O)N[C@@H](Cc1ccccc1)C(=O)N[C@H](C(=O)N1CCC[C@H]1C(=O)N[C@H](C(=O)N[C@@H](CC(N)=O)C(=O)N[C@H](C(=O)NCC(=O)N[C@@H](CO)C(=O)N[C@@H](CCCCN)C(=O)N[C@@H](C)C(=O)N[C@@H](Cc1ccccc1)C(N)=O)C(C)C)[C@@H](C)O)C(C)C)C(C)C` [CGRP, calcitonin gene-related peptide], the “Peptide level in elutes from 0.1, 5, 10 and 20% solution groups” value in series [2] is recorded as “similar”. Also, the “Increase in blood flow at the 5 h time point in control animals” value in series [3] is reported as > 25%. Also, the “Solubility in 5% glucose solution” value in series [1] (visual) was “soluble from 0.1% to 20%”. Moreover, the “EC80 of agonist in the cAMP assay” value at CLR/RAMP1 receptor (agonist, cAMP Hunter CLR/RAMP1 cells) was 370 pM.
Consider `CC1(C)O[C@@H]2[C@@H](CO[C@@]3(COS(N)(=O)=O)OC(C)(C)O[C@@H]23)O1` [topiramate], for which, in the series on migraine (ref Overeem et al., 2021), the “Reduction of migraine days” value is recorded as 1.11 migraine days.
Consider `C[C@@H]1[C@H](c2ccccc2)C[C@H](NC(=O)c2cnc3c(c2)C[C@@]2(C3)C(=O)Nc3ncccc32)C(=O)N1CC(F)(F)F` [ubrogepant], for which the “Pain freedom at 2 h, share of acute migraine patients” value with migraine (14.3% in the placebo group, ref Lipton et al., 2019, Switzer et al., 2022) is 21.8%. Besides, in the series with migraine (ref Lipton et al., 2019, Switzer et al., 2022), the “Absolute difference in the pain-free rate versus placebo” value is listed as 6.4–7.5%.
As to “Pal-KVQ-Lys (Pyr)-LSAPVDPSSPHSY-NH2 [ADE651N, ADE651 variant, second lysine substituted with Lys (Pyr)]”, in series [1], the Gel-forming ability result is on record as “Y”. In addition, on CLR/RAMP1 receptor, the Maximum response was 99.9 % of positive control and the “Antagonistic activity toward CGRP-mediated CLR/RAMP1 signaling compared to ADE651” value was “retained the potent antagonistic activity”.
Turning to “VGCRFGTCTVQKLAHLWQLMGPAGRQDSAPVDPSSPHSY-NH2 [ADE410]”, the “Peptide level in elutes from 0.1, 5, 10 and 20% solution groups” value in series [2] is “similar”. Further, the “Solubility in 5% glucose solution” value in series [1] (visual) was “soluble from 0.1% to 20%”. Besides, the “Liquid gel formation at 6–20% level” value in series [1] (visual, result in words) is “does not form a liquid gel”.
With “abaloparatide: approved peptide therapeutic”, the Volume of distribution in series [4] (in vivo) was 50.0 L.
Regarding exenatide: approved peptide therapeutic, in series [4] (in vivo), the Volume of distribution is 28.3 L.
As to histrelin, the Volume of distribution in series [4] (in vivo) is given as 58.4 L.
With setmelanotide, the Volume of distribution in series [4] (approved peptide therapeutics) is 48.7 L.
